Measurements: patent US12459916B2, “Substituted indazoles useful for treatment and prevention of allergic and/or inflammatory diseases in animals” (Bayer Pharma Aktiengesellschaft, priority 2016, dated 2025)
Read-outs that look alike come from different tables or passages of the source.

Key:
[1] = test system: secretion of TNF-α in THP-1 cells; test: TNF-α secretion in THP-1 cells; type: cell-based; settings: Homo sapiens, LPS 0.05 μg/ml, 17 h, read-out: IC50 with respect to the secretion of TNF-α in THP-1 cells
Experimental: This test is suited to test substances for their ability to inhibit secretion of TNF-α (tumour necrosis factor alpha) in THP-1 cells (human monocytic acute leukaemia cell line). TNF-α is a cytokine involved in inflammatory processes. In this test, TNF-α secretion is triggered by incubation with bacterial lipopolysaccharide (LPS).
The cells were incubated at room temperature for 15 min. 2-2.5 μl of 0.1 μg/ml LPS (Sigma, Escherichia coli 055:B5, Cat. No. L5418) dissolved in cell culture medium (final concentration 0.05 μg/ml) were then dispensed into each well. As neutral control, cells were treated with 0.05 μg/ml LPS and 1% DMSO and, as inhibitor control, with 1% DMSO only.
The amount of TNF-α was determined using the TNF-alpha HTRF Detection Kit (Cisbio, Cat. No. 62TNFPEB/C). To this end, 2 μl of the detection solution in each case, consisting of anti-TNF-α-XL665 conjugate and anti-TNF-α-cryptate conjugate dissolved in the reconstitution buffer in accordance with the manufacturer's instructions, were added for the HTRF (Homogeneous Time-Resolved Fluorescence) test. After the addition, the mixture was incubated either at room temperature for 3 h or at 4° C. overnight.
The activity of the substances is expressed as the ratio between neutral and inhibitor control in percent. The IC50 values were calculated using a 4-parameter fit.

[2] = molecular target: canine IRAK4 (Canis lupus familiaris, UniProt A0A8I3S726); test: Canine IRAK4 kinase assay (TR-FRET); type: biochemical
Experimental: The IRAK4-inhibitory activity of the present compounds on canine IRAK4 was measured in the Irak4 TR-FRET assay (TR-FRET=Time Resolved Fluorescence Resonance Energy Transfer) described hereinafter.
Recombinant fusion protein from N-terminal HIS (Poly-histidine) and canine Irak4, expressed in baculovirus-infected insect cells (Hi5, BTI-TN-5B1-4, cell line purchased from Invitrogen, catalogue No. B855-02) and purified via affinity chromatography, was used as enzyme. The substrate used for the kinase reaction was the biotinylated peptide biotin-Ahx-[…]
50 nl of the respective solution were pipetted into a black low-volume 384-well microtitre plate (Greiner Bio-One, Frickenhausen, Germany), 2 μl of a solution of Irak4 in assay buffer [50 mM HEPES pH 7.5, 5 mM MgCl2, 1.0 mM dithiothreitol, 30 μM activated sodium orthovanadate, 0.1% (w/v) of bovine gamma-globulin (BGG) 0.04% (v/v) nonidet-P40 (Sigma)] were added and the mixture was incubated for 15 min to allow prebinding of the substances to the enzyme prior to the kinase reaction. […] The concentration of the Irak4 was adjusted to the respective activity of the enzyme and set such that the assay was carried out in the linear range. Typical concentrations were in the order of about 0.1 nM.
The resulting mixture was incubated at 22° C. for 1 h to allow formation of a complex of the biotinylated phosphorylated substrate and the detection reagents. The amount of the phosphorylated substrate was then evaluated by measuring the resonance energy transfer from europium chelate-labelled anti-mouse-IgG antibody to streptavidin-XL665. […] The IC50 values were calculated by a 4-parameter fit.

[3] = IC50 in the IRAK4 canine kinase assay, values from two experiments, 1 mM ATP
[4] = recombinant canine IRAK4 enzyme, read-out: IC50 for the inhibition of canine IRAK4

Chain of canine IRAK4 (A0A8I3S726 1-460): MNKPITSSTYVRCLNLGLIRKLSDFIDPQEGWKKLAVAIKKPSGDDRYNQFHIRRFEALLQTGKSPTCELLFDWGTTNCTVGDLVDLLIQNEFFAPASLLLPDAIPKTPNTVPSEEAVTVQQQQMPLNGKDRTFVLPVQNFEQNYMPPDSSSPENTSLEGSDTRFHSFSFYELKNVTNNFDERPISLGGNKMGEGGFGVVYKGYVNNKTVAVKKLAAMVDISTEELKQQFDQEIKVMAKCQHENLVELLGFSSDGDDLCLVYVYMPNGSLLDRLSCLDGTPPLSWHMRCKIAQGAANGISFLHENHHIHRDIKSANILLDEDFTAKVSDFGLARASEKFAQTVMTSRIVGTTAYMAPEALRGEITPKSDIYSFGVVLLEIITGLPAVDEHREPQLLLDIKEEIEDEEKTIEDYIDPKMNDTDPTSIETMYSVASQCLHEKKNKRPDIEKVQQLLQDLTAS

CC(C)(O)CCn1cc2cc(NC(=O)c3cccc(C(F)F)n3)c(C(C)(C)O)cc2n1 [Example 13, 6-(Difluoromethyl)-N-[2-(3-hydroxy-3-methylbutyl)-6-(2-hydroxypropan-2-yl)-2H-indazol-5-yl]pyridine-2-carboxamide]
IC50 [1]: 100 nM
IC50 [2, 3]: 2.68 nM
IC50 [2, 4]: 2.2 nM

Cc1nc(C(=O)Nc2cc3cn(CCC(C)(C)O)nc3cc2C(C)(C)O)ccc1F [Example 19, 5-Fluoro-N-[2-(3-hydroxy-3-methylbutyl)-6-(2-hydroxypropan-2-yl)-2H-indazol-5-yl]-6-methylpyridine-2-carboxamide]
IC50 [1]: 100 nM
IC50 [2, 3]: 6.75 nM
IC50 [2, 4]: 7.6 nM
